Experimental data reported in PubChem BioAssay (NCI).
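48-hour exposure; five concentrations; linearly interpolated endpoints. GI50 marks 50% less growth. TGI denotes the concentration required for complete inhibition of growth.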

Experiments:
Assay in all cases: NCI anticancer screen, dose series, 48 h
[1] = system: 786-0 renal
[2] = system: A498 renal
[3] = system: A549 NSCLC
[4] = system: ACHN renal
[5] = system: BT-549 breast
[6] = system: CCRF-CEM leukemia
[7] = system: COLO 205 colon
[8] = system: DU-145 prostate
[9] = system: EKVX NSCLC
[10] = system: HCC-2998 colon
[11] = system: HCT-116 colon
[12] = system: HCT-15 colon
[13] = system: HL-60(TB) leukemia
[14] = system: HOP-62 NSCLC
[15] = system: HOP-92 NSCLC
[16] = system: HS 578T breast
[17] = system: HT29 colon
[18] = system: IGROV1 ovarian
[19] = system: K-562 leukemia
[20] = system: KM12 colon
[21] = system: LOX IMVI melanoma
[22] = system: M14 melanoma
[23] = system: MALME-3M melanoma
[24] = system: MCF7 breast
[25] = system: MDA-MB-231 breast
[26] = system: MDA-MB-435
[27] = system: MOLT-4 leukemia
[28] = system: NCI-H226 lung
[29] = system: NCI-H23 lung
[30] = system: NCI-H460 lung
[31] = system: NCI-H522 lung
[32] = system: NCI/ADR-RES ovarian
[33] = system: OVCAR-3 ovarian
[34] = system: OVCAR-4 ovarian
[35] = system: OVCAR-5 ovarian
[36] = system: OVCAR-8 ovarian
[37] = system: PC-3 prostate
[38] = system: RPMI-8226 leukemia
[39] = system: RXF 393 renal
[40] = system: SF-268 CNS
[41] = system: SF-295 CNS
[42] = system: SF-539 CNS
[43] = system: SK-MEL-2 melanoma
[44] = system: SK-MEL-28 melanoma
[45] = system: SK-MEL-5 melanoma
[46] = system: SK-OV-3 ovarian
[47] = system: SN12C renal
[48] = system: SNB-19 CNS
[49] = system: SNB-75 CNS
[50] = system: SR leukemia
[51] = system: SW-620 colon
[52] = system: T-47D breast
[53] = system: TK-10 renal
[54] = system: U251 CNS
[55] = system: UACC-257 melanoma
[56] = system: UACC-62 melanoma
[57] = system: UO-31 renal

Q: What does the source list for `COc1ccc(-c2cc(C(=O)N3N=C(c4ccc(N)cc4)CC3c3ccc(Cl)cc3)c3ccccc3n2)cc1` (centres undefined)?
A: GI50 [1]: 1.84 µM; TGI [1]: > 100 µM; GI50 [2]: 0.375 µM; TGI [2]: 0.914 µM; GI50 [3]: 2.33 µM; TGI [3]: > 100 µM; GI50 [4]: 1.47 µM; TGI [4]: > 100 µM; GI50 [5]: 2.04 µM; TGI [5]: 73 µM; GI50 [6]: 5.84 µM; TGI [6]: > 100 µM; GI50 [7]: 1.99 µM; TGI [7]: 6.58 µM; GI50 [8]: 3.16 µM; TGI [8]: > 100 µM; GI50 [9]: 3.78 µM; TGI [9]: > 100 µM; GI50 [10]: 3.4 µM; TGI [10]: > 100 µM; GI50 [11]: 1.41 µM; TGI [11]: > 100 µM; GI50 [12]: 1.03 µM; TGI [12]: > 100 µM; GI50 [13]: 2.54 µM; TGI [13]: > 100 µM; GI50 [14]: 3.21 µM; TGI [14]: > 100 µM; GI50 [15]: 1.92 µM; TGI [15]: > 100 µM; GI50 [16]: 1.05 µM; TGI [16]: > 100 µM; GI50 [17]: 1.13 µM; TGI [17]: > 100 µM; GI50 [18]: 4.98 µM; TGI [18]: > 100 µM; GI50 [19]: 1.05 µM; TGI [19]: > 100 µM; GI50 [20]: 1.15 µM; TGI [20]: > 100 µM; GI50 [21]: 1.56 µM; TGI [21]: > 100 µM; GI50 [22]: 1.16 µM; TGI [22]: > 100 µM; GI50 [23]: > 100 µM; TGI [23]: > 100 µM; GI50 [24]: 0.442 µM; TGI [24]: > 100 µM; GI50 [25]: 3.28 µM; TGI [25]: > 100 µM; GI50 [26]: 0.305 µM; TGI [26]: 2.22 µM; GI50 [27]: 3.3 µM; TGI [27]: > 100 µM; GI50 [28]: 7.54 µM; TGI [28]: > 100 µM; GI50 [29]: 3.14 µM; TGI [29]: > 100 µM; GI50 [30]: 1.89 µM; TGI [30]: > 100 µM; GI50 [31]: 0.307 µM; TGI [31]: 1.8 µM; GI50 [32]: 0.519 µM; TGI [32]: > 100 µM; GI50 [33]: 0.462 µM; TGI [33]: 8.55 µM; GI50 [34]: 1.82 µM; TGI [34]: > 100 µM; GI50 [35]: 5.51 µM; TGI [35]: > 100 µM; GI50 [36]: 4.16 µM; TGI [36]: > 100 µM; GI50 [37]: 2.03 µM; TGI [37]: > 100 µM; GI50 [38]: 3.86 µM; TGI [38]: > 100 µM; GI50 [39]: 0.698 µM; TGI [39]: 8.22 µM; GI50 [40]: 2.19 µM; TGI [40]: > 100 µM; GI50 [41]: 0.54 µM; TGI [41]: > 100 µM; GI50 [42]: 1.41 µM; TGI [42]: > 100 µM; GI50 [43]: 2.03 µM; TGI [43]: > 100 µM; GI50 [44]: 3.78 µM; TGI [44]: > 100 µM; GI50 [45]: 0.701 µM; TGI [45]: 9.25 µM; GI50 [46]: 3.32 µM; TGI [46]: > 100 µM; GI50 [47]: 4.27 µM; TGI [47]: > 100 µM; GI50 [48]: 5.54 µM; TGI [48]: > 100 µM; GI50 [49]: 0.371 µM; TGI [49]: 8.66 µM; GI50 [50]: 0.595 µM; TGI [50]: > 100 µM; GI50 [51]: 1.24 µM; TGI [51]: > 100 µM; GI50 [52]: 2.71 µM; TGI [52]: > 100 µM; GI50 [53]: 52.3 µM; TGI [53]: > 100 µM; GI50 [54]: 2.18 µM; TGI [54]: > 100 µM; GI50 [55]: > 100 µM; TGI [55]: > 100 µM; GI50 [56]: 0.556 µM; TGI [56]: > 100 µM; GI50 [57]: 1.55 µM; TGI [57]: > 100 µM
